# Patent US20170100396A1 (priority 2015, published 2017)
# Like-named read-outs stand apart in the source and are kept apart here.
# How the values were obtained:
# [1] = tested on: influenza A virus (IAV) A/Aichi/2/68 (H3N2); experiment: microbe, parasite or virus in culture; assay type: cell-based, influenza A virus in MDCK cells; settings: Influenza A virus; for inhibition at 50 µM: H3N2, read-out: % CPE reduction
# [2] = in vitro; settings: dog
# [3] = target: PB2 cap binding domain (PB2-CBD) (residues 318-483) (Influenza A virus (A/duck/Shantou/4610/2003(H5N1)), UniProt Q2LG68); parameters: species or system avian influenza strain A/duck/Shantou/4610/2003(H5N1)
# [4] = H3N2, MDCK, 48 h, read-out: CPE IC50
structure (smiles),measurement,setting,value
O=C(N[C@@H](C(=O)N1CC[C@@H](O)C1)C1CCCCC1)c1c[nH]c2ncc(C3CC3)nc12,inhibition at 50 µM,[1],-14.8%
O=C(NCCc1ccccc1)c1c[nH]c2ncc(C3CC3)nc12,IC50,[1]; [4],66.9 µM
same,CC50,[2],> 100 µM
O=C(N[C@@H](C(=O)NCc1ccc(Cl)cc1Cl)C1CC1)c1c[nH]c2ncc(C3CC3)nc12,IC50,[1]; [4],11.2 µM
same,CC50,[2],> 12.5 µM
N#Cc1cccc(CNC(=O)[C@H](NC(=O)c2c[nH]c3ncc(C4CC4)nc23)C2CC2)c1,IC50,[1]; [4],12.4 µM
same,CC50,[2],> 50 µM
O=C(N[C@@H](C(=O)N[C@H]1CC[C@H](C(=O)O)CC1)C1CCCCC1)c1c[nH]c2ncc(C3CC3)nc12,inhibition at 50 µM,[1],14.8%
COC(=O)c1cccc(CNC(=O)[C@H](NC(=O)c2c[nH]c3ncc(C4CC4)nc23)C2CC2)c1,IC50,[1]; [4],4.8 µM
same,CC50,[2],63.9 µM
O=C(O)c1cccc(CNC(=O)[C@H](NC(=O)c2c[nH]c3ncc(C4CC4)nc23)C2CC2)c1,inhibition at 50 µM,[1],-0.2%
O=C(N[C@@H](C(=O)NCc1ccncn1)C1CCCCC1)c1c[nH]c2ncc(C3CC3)nc12,inhibition at 50 µM,[1],-2.2%
O=C(N[C@@H](C(=O)NCc1cccnc1)C1CC1)c1c[nH]c2ncc(C3CC3)nc12,inhibition at 50 µM,[1],6.6%
O=C(NCC(=O)N1CCCC1)c1c[nH]c2ncc(C3CC3)nc12,inhibition at 50 µM,[1],36.2%
CC(C)c1cnc2[nH]cc(C(=O)NCC(C)(C)C)c2n1,Fp (result in words),[3],No displacement
same,IC50,[1]; [4],52.2 µM
O=C(NCC1CC1)c1c[nH]c2ncc(-c3ccccc3Cl)nc12,Fp (result in words),[3],No displacement
CS(=O)(=O)c1cccc(CNC(=O)c2c[nH]c3ncc(-c4ccccc4Cl)nc23)c1,Fp (result in words),[3],No displacement
same,IC50,"[1]; H3N2, read-out: CPE IC50",22.5 µM
